One may read the half-life as the time needed for the level to fall by half in the phase considered. The term Tmax denotes the time at which the peak concentration occurs.

The results in this text go back to PMC5466349 (Pharmacotherapy, 2014).

A short description of the data set: clinical. To be noted: human, in vivo; for half-life: T ½; for half-life / Tmax: geometric mean (90% CI), post-ginseng.

Regarding `CC(C)c1nc(CN(C)C(=O)N[C@H](C(=O)N[C@@H](Cc2ccccc2)C[C@H](O)[C@H](Cc2ccccc2)NC(=O)OCc2cncs2)C(C)C)cs1` [Ritonavir, ritonavir], the half-life was 7.71 h and the Tmax was 2.7 h.
On to `Cc1cccc(C)c1OCC(=O)N[C@@H](Cc1ccccc1)[C@@H](O)C[C@H](Cc1ccccc1)NC(=O)[C@H](C(C)C)N1CCCNC1=O` [Lopinavir, lopinavir], for which the “Cl/Fss geometric mean ratio (90% CI), post-ginseng/pre-ginseng” value was 1.05 (0.94–1.17); the “T ½ geometric mean ratio (90% CI), post-ginseng/pre-ginseng” value is listed as 1.19 (0.92–1.46); the half-life is 10 h; the Tmax was 2.5 h.
